This is an account of results in US9198902B2, “1,4-dihydropyridine-3,5-dicarboxylate derivatives and preparation and use thereof” (Xuanzhu Pharma Co., Ltd., priority 2011, dated 2015).

For one assay, the system named is SHRs. The experiment in a line: In vivo hypotensive activity in SHRs, DSI implant-type remote blood pressure measurement. Further details: species or system rats. Conditions: male SHRs, 10 mg/kg po, monitored 24 hours. As to the method: The in vivo hypotensive activity assay was conducted according to DSI experimental procedure with reference to page 56 of WO 2009/056934 A1. The agents to be tested, lercanidipine, barnidipine, amlodipine, azelnidipine, efonidipine and manidipine, were accurately weighed. Each agent was dissolved in DMSO. To the resulting solution was added 50% of the corresponding volume of PEG400 so that the final concentration of each agent was 1 mg/ml, and the final concentration of DMSO was 3%. […] Each compound was dissolved in DMSO. […] The compound to be tested, Compound 15, was accurately weighed. This compound was dissolved in DMSO. […] The compound to be tested, Compound 16 (optical activity)+108.34° and Compound 17 (optical activity optical activity)+36.4°, were accurately weighed. […] The test for hypotensive effect: Male SHRs were subjected to an abdominal aorta implantation using an implant, and used in the test after 7-10 days of recovery. The administration was an intragastric administration. One hour before the administration, the measured blood pressure was used as the pre-administration basic blood pressure value. After the administration, SHRs, allowed free access to the diet, were continuously monitored with a DSI implant-type blood pressure remote measurement system for 24 hours.

Assay [1] has as its target L-type calcium ion channels (Cavia porcellus, UniProt O35505). The experiment in a line: L-type calcium ion channel inhibition, whole cell patch-clamp (electrophysiological method). The class given is cell-based. Conditions: left ventricle muscle cells of guinea pigs, room temperature. From the text: 2. Test for L- and T-Type Calcium Ion Channel Inhibitors
This experiment was assigned to HD Biosciences Corporation (Shanghai) and conducted with an electrophysiological method.
It was done with reference to the method as disclosed by Jung-Ha Lee, et. al., “Identification of T-Type α1H Ca^2+ Channels (Cav3.2) in Major Pelvic Ganglion Neurons”. J Neurophysiol 87:2844-2850, 2002.
Test samples were weighed accurately and diluted in a 3-fold stepwise dilution so that the final concentrations were as follows:
L-type test: Left ventricle muscle cells were separated from guinea pigs. The cells were used in the experiment in eight hours. The ionic current of a single cell was recorded by applying the whole cell patch-clamp technique at room temperature, wherein the clamp current was −80 mV, and the pulse interval was 10 s. The inward current (the activiation was started from 0 mV) is the L-type calcium current (ICa,L).
The electrode inner liquid (mM): CsCl 120, TEA-Cl 20, CaCl2 1, EGTA-CsOH 11, Hepes 10, Mg-ATP 5, pH7.3;
The electrode outer liquid (mM): NaCl 135, CsCl 5.4, CaCl2 1.8, MgCl2 1, Hepes 5, glucose 10, pH7.4.

The test system of assay [2] is SHRs (spontaneous hypertensive rats). The experiment in a line: In vivo hypotensive activity in SHRs, tail-pinch method. Conditions: male SHRs, 10 mg/kg po; for Max ΔMAP (mmHg ± SEM): measured 1-24 h after administration. How it is done: The in vivo hypotensive activity assay was conducted according to the tail-pinch method with reference to Folia pharmacol. Japon. 97, 115-126 (1991).
The agents to be tested, lercanidipine, barnidipine, amlodipine, azelnidipine, efonidipine and manidipine, were accurately weighed respectively. Each agent was dissolved in DMSO. To the resulting solution was added 50% of the corresponding volume of PEG400 so that the final concentration of each agent was 1 mg/ml, and the final concentration of DMSO was 3%.
The compounds to be tested, Compound 18, Compound 21, Compound 22, Compound 23, and Compound 26, were accurately weighed respectively. Each compound was dissolved in DMSO. To the resulting solution was added 50% of the corresponding volume of PEG400 so that the final concentration of each compound was 1 mg/ml, and the final concentration of DMSO was 3%.
The compounds to be tested, Compound 19 and Compound 20, were accurately weighed respectively. Each compound was suspended in 0.5% MC so that the final concentration of each compound was 1 mg/ml.
The test for hypotensive effect: Male SHRs (spontaneous hypertensive rats) were randomly allocated into a control group and an administration group. The administration was an intragastric administration. One hour before the administration, the measured blood pressure was used as the pre-administration basic blood pressure value. After the administration, the contractive pressure, the heart rate and the mean arterial pressure of SHRs at six time points, i.e. 1, 2, 4, 6, 8 and 24 hours after the administration, were measured with a Softron BP-98A non-invasive blood pressure instrument respectively.

The target in a further assay is Human Cav3.2 (Homo sapiens, UniProt O95180). The experiment in a line: T-type calcium ion channel inhibition, FLIPR method. The class given is cell-based. Conditions: Human Cav3.2 in stable HEK-293 cells, FLIPR Calcium 4 No-Wash kit. As to the method:
T-type tests for Compound 19 and Compound 20 were assigned to Chan Test Corporation, and conducted according to the FLIPR experimental procedure as follows.
It was done with reference to the method disclosed on page 48 of WO 2009/056934 A1.
Samples were weighed accurately and diluted in a 3-fold stepwise dilution so that the final concentrations were as follows: 100 μM, 30 μM, 10 μM, 3 μM, 1 μM, 0.3 μM, 0.1 μM, 0.03 μM, 0.01 μM, 0.003 μM.
T-type test: Human Cav3.2 was cloned in stable HEK-293 cells, and then the operation was conducted with FLIPR Calcium 4 No-Wash kit. The cell medium was removed. To an HEPES solution free of calcium ion was added 20 μL dye to dye for 30 minutes at a temperature of 37° C. This buffer free of calcium ion included NaCl, 137 mM; KCl, 0.5 mM; MgCl2 mM, 1 mM; HEPES, 10 mM; glucose, 10 mM. The pH value was adjusted to 7.4 with NaOH. After 30 minutes, the buffer was placed at room temperature for 30 minutes. Then 5 μL of compound to be tested, solvent or blank control were added. The compound was formulated with a buffer containing calcium ion, said buffer including KCl, 135 mM; CaCl2, 10.8 mM; MgCl2, 1 mM; HEPES, 10 mM; glucose, 10 mM. The collected fluorescence values were analyzed and the inhibition ratios were calculated.

Chain of L-type calcium ion channels (O35505 whole entry): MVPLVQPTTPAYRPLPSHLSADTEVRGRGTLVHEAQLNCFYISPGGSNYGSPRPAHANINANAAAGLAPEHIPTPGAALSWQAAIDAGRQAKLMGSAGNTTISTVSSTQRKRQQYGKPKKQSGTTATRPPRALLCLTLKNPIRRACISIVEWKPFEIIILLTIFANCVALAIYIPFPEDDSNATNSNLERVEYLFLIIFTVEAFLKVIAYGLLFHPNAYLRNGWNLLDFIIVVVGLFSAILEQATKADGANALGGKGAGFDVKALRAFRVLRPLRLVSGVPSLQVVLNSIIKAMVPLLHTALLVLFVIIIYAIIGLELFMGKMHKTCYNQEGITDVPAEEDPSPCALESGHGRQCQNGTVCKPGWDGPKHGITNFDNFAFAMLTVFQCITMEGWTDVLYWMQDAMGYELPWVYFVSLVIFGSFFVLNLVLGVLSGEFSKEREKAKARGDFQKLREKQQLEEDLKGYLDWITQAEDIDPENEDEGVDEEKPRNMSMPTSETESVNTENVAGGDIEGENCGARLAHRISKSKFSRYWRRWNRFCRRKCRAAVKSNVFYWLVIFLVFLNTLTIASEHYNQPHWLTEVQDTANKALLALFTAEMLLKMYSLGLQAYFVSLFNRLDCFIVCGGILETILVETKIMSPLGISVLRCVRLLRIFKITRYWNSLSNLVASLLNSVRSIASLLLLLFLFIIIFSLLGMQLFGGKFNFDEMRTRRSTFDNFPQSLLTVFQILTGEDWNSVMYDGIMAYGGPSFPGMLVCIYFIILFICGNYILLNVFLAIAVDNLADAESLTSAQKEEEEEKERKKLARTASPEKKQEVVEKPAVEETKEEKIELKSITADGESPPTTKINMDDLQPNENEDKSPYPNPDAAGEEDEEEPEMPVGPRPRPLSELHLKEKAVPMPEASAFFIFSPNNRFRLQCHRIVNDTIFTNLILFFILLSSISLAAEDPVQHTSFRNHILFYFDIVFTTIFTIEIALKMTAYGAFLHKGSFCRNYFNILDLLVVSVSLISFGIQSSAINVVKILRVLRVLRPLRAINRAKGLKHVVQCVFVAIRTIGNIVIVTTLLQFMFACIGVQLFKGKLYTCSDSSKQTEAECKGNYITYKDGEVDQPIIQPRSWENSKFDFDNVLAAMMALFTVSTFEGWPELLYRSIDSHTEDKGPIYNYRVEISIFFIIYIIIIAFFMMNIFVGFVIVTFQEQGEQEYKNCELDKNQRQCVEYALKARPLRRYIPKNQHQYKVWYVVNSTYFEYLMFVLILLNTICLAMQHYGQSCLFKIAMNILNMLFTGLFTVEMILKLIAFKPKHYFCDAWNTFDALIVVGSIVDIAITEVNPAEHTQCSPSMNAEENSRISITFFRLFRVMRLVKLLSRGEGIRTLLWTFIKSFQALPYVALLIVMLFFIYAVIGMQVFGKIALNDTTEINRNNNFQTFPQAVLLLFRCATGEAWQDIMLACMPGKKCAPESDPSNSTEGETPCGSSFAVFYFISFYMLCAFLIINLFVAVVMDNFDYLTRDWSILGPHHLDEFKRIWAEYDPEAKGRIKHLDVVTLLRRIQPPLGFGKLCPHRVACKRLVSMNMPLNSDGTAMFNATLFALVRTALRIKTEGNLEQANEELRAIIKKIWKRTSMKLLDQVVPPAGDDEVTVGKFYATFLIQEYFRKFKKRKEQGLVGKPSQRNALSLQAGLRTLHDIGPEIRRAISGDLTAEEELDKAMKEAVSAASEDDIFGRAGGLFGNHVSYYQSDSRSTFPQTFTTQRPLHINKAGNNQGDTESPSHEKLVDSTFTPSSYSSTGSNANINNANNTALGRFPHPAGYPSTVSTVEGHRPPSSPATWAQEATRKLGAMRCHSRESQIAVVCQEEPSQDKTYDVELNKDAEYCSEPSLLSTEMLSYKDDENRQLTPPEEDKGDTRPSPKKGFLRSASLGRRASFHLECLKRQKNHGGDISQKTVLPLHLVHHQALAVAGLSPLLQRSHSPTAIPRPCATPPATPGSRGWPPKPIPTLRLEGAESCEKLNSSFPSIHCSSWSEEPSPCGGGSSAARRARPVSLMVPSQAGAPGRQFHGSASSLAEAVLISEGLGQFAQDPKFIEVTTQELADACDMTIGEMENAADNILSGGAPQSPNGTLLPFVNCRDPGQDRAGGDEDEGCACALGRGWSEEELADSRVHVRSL
Chain of Human Cav3.2 (O95180 whole entry): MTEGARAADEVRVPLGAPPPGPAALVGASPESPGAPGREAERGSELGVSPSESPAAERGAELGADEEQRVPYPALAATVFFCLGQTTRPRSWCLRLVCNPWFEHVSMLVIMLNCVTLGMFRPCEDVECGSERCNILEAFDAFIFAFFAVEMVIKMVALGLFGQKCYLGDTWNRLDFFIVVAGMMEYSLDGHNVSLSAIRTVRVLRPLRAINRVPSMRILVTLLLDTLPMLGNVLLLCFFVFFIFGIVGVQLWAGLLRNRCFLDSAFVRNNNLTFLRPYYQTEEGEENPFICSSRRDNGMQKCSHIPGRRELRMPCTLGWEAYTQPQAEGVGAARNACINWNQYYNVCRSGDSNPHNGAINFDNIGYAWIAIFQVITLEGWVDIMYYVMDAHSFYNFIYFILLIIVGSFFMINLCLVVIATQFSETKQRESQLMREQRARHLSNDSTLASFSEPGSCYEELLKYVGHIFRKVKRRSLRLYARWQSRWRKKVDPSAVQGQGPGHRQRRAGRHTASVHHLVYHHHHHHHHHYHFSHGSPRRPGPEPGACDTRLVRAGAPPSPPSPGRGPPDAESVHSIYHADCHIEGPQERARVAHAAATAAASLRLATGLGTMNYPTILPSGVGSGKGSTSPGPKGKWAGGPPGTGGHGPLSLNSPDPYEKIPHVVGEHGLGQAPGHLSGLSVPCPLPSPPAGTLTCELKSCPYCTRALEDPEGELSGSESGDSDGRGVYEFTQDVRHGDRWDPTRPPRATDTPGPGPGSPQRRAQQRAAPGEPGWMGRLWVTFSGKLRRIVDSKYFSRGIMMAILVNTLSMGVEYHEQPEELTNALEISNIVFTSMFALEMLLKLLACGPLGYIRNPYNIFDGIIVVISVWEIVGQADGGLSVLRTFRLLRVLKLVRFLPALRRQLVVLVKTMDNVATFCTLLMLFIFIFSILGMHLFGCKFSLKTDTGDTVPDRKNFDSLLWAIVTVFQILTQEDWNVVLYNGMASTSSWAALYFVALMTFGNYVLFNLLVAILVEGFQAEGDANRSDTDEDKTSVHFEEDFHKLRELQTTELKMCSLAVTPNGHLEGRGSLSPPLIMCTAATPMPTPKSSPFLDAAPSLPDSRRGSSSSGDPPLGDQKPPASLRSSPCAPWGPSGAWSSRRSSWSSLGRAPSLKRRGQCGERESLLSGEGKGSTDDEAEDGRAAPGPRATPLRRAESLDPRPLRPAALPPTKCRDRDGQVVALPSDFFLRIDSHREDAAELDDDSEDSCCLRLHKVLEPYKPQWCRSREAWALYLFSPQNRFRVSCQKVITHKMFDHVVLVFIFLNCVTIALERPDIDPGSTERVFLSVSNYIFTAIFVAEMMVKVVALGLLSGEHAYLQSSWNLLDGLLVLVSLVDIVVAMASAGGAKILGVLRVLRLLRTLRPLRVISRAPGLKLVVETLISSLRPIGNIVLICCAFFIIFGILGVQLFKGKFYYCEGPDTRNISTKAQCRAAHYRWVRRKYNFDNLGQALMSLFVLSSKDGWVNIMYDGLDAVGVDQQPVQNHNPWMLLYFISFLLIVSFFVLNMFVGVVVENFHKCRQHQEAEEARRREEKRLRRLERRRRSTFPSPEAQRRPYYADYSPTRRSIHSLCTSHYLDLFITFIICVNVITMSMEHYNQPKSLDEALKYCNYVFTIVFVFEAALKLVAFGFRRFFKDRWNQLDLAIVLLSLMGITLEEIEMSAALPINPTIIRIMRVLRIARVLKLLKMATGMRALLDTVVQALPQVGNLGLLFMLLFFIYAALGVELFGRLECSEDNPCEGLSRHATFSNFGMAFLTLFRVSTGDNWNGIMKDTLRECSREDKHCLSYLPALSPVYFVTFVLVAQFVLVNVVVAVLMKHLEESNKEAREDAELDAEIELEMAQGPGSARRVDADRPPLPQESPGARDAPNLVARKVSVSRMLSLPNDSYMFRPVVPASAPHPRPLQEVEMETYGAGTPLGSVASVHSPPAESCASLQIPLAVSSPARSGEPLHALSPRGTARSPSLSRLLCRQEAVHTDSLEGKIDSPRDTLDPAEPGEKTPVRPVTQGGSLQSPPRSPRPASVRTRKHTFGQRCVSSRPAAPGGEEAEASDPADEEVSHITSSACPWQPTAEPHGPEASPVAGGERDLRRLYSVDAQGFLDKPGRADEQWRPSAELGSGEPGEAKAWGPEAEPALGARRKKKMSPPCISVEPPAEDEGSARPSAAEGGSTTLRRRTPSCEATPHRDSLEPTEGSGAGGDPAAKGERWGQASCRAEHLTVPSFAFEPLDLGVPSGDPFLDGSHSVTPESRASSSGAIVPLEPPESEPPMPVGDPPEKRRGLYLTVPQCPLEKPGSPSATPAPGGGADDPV

For the molecule `COC(=O)C1=C(C)NC(C)=C(C(=O)OC2(C)CCN(Cc3ccccc3)C2)C1c1cccc([N+](=O)[O-])c1` (stereo not drawn) [Compound 1, 3-(1-benzyl-3-methylpyrrolidin-3-yl) 5-methyl 2,6-dimethyl-4-(3-nitrophenyl)-1,4-dihydropyridine-3,5-dicarboxylate], in the assay on SHRs, the “Max ΔMAP (mmHg ± SEM)” value is 47 ± 7 mmHg and the “ΔMAP > 20 (mmHg) Duration time of action” value was 6 h.
The matching figures for `COC(=O)C1=C(C)NC(C)=C(C(=O)OC2(C)CCN(CCC(c3ccccc3)c3ccccc3)C2)C1c1cccc([N+](=O)[O-])c1` (stereo not drawn) [Compound 2, 3-[1-(3,3-diphenylpropyl)-3-methylpyrrolidin-3-yl] 5-methyl 2,6-dimethyl-4-(3-nitrophenyl)-1,4-dihydropyridine-3,5-dicarboxylate]: 53 ± 7 mmHg and 16 h.
A word on the IC50: it is the concentration needed to halve the response being measured. For `COC(=O)C1=C(C)NC(C)=C(C(=O)OC2(C)CCN(CCC(c3ccccc3)c3ccccc3)C2)[C@@H]1c1cccc([N+](=O)[O-])c1` (stereo partly drawn) [Compound 14, (4R)-3-[1-(3,3-diphenylpropyl)-3-methylpyrrolidin-3-yl] 5-methyl 2,6-dimethyl-4-(3-nitrophenyl)-1,4-dihydropyridine-3,5-dicarboxylate], in assay [1], the half-inhibitory concentration (IC50) was found to be 0.59 µM.
Take `COC(=O)C1=C(C)NC(C)=C(C(=O)OC2(C)CCN(CCC(c3ccccc3)c3ccccc3)C2)[C@H]1c1cccc([N+](=O)[O-])c1` (stereo partly drawn) [Compound 15, (4S)-3-[1-(3,3-diphenylpropyl)-3-methylpyrrolidin-3-yl] 5-methyl 2,6-dimethyl-4-(3-nitrophenyl)-1,4-dihydropyridine-3,5-dicarboxylate]: in the assay on SHRs, the “Max ΔMAP (mmHg ± SEM)” value turned out to be 56 ± 1 mmHg and the “ΔMAP > 20 (mmHg) Duration time of action” value was determined as 14 h. For the same molecule, the IC50 in assay [1] was determined as 1.28 µM.
For the molecule `COC(=O)C1=C(C)NC(C)=C(C(=O)OC2(C)CCN(CC(c3ccccc3)c3ccccc3)C2)[C@H]1c1cccc([N+](=O)[O-])c1` (stereo partly drawn) [Compound 18, (4S)-3-[1-(2,2-diphenylethyl)-3-methylpyrrolidin-3-yl] 5-methyl 2,6-dimethyl-4-(3-nitrophenyl)-1,4-dihydropyridine-3,5-dicarboxylate], in assay [2], the “ΔMAP > 20 (mmHg) Duration time of action” value was 24 h and the “Max ΔMAP (mmHg ± SEM)” value worked out at 69 ± 4 mmHg.
Take `COC(=O)C1=C(C)NC(C)=C(C(=O)O[C@]2(C)CCN(CC(c3ccccc3)c3ccccc3)C2)[C@H]1c1cccc([N+](=O)[O-])c1` [Compound 19, (S)-3-[(R)-1-(2,2-diphenylethyl)-3-methylpyrrolidin-3-yl] 5-methyl 2,6-dimethyl-4-(3-nitrophenyl)-1,4-dihydropyridine-3,5-dicarboxylate]: the half-maximal inhibitory concentration (IC50) on Human Cav3.2 is 75.4 µM. In addition, in assay [2], the “ΔMAP > 20 (mmHg) Duration time of action” value was determined as 24 h and the “Max ΔMAP (mmHg ± SEM)” value stood at 72 ± 8 mmHg.
The matching figures for `COC(=O)C1=C(C)NC(C)=C(C(=O)O[C@@]2(C)CCN(CC(c3ccccc3)c3ccccc3)C2)[C@H]1c1cccc([N+](=O)[O-])c1` [Compound 20, (S)-3-[(S)-1-(2,2-diphenylethyl)-3-methylpyrrolidin-3-yl] 5-methyl 2,6-dimethyl-4-(3-nitrophenyl)-1,4-dihydropyridine-3,5-dicarboxylate]: 66.9 µM, 24 h and 80 ± 14 mmHg.
As to `COC(=O)C1=C(C)NC(C)=C(C(=O)OC2(C)CCN(CCCc3ccccc3)C2)[C@H]1c1cccc([N+](=O)[O-])c1` (stereo partly drawn) [Compound 21, (4S)-3-[3-methyl-1-(3-phenylpropyl)pyrrolidin-3-yl] 5-methyl 2,6-dimethyl-4-(3-nitrophenyl)-1,4-dihydropyridine-3,5-dicarboxylate], in assay [2], the “ΔMAP > 20 (mmHg) Duration time of action” value was 24 h and the “Max ΔMAP (mmHg ± SEM)” value is listed as 28 ± 12 mmHg.
As to `COC(=O)C1=C(C)NC(C)=C(C(=O)OC2(C)CCN(CCc3ccccc3)C2)[C@H]1c1cccc([N+](=O)[O-])c1` (stereo partly drawn) [Compound 22, (4S)-3-(3-methyl-1-phenylethylpyrrolidin-3-yl) 5-methyl 2,6-dimethyl-4-(3-nitrophenyl)-1,4-dihydropyridine-3,5-dicarboxylate], in assay [2], the “ΔMAP > 20 (mmHg) Duration time of action” value stood at 24 h and the “Max ΔMAP (mmHg ± SEM)” value amounted to 43 ± 7 mmHg.
As for `COC(=O)C1=C(C)NC(C)=C(C(=O)OC2(C)CCN(Cc3cc(F)cc(F)c3)C2)[C@H]1c1cccc([N+](=O)[O-])c1` (stereo partly drawn) [Compound 23, (4S)-3-[1-(3,5-difluorobenzyl)-3-methylpyrrolidin-3-yl]5-methyl 2,6-dimethyl-4-(3-nitrophenyl)-1,4-dihydropyridine-3,5-dicarboxylate], in assay [2], the “ΔMAP > 20 (mmHg) Duration time of action” value was 24 h and the “Max ΔMAP (mmHg ± SEM)” value was determined as 60 ± 12 mmHg.
Turning to `COC(=O)C1=C(C)NC(C)=C(C(=O)OC2(C)CCN(C(c3ccccc3)c3ccccc3)C2)[C@H]1c1cccc([N+](=O)[O-])c1` (stereo partly drawn) [Compound 26, (4S)-3-[1-diphenylmethyl-3-methylpyrrolidin-3-yl]5-methyl 2,6-dimethyl-4-(3-nitrophenyl)-1,4-dihydropyridine-3,5-dicarboxylate], in assay [2], the “ΔMAP > 20 (mmHg) Duration time of action” value amounted to 24 h and the “Max ΔMAP (mmHg ± SEM)” value was 55 ± 13 mmHg.
Regarding `CC1=C(C(=O)OC(C)C)C(c2cccc([N+](=O)[O-])c2)C(C(=O)OC2CN(C(c3ccccc3)c3ccccc3)C2)=C(N)N1` (stereo not drawn) [azelnidipine, reference compound], in the assay on SHRs, the “Max ΔMAP (mmHg ± SEM)” value amounted to 40 ± 5 mmHg and the “ΔMAP > 20 (mmHg) Duration time of action” value is listed as 11 h. In addition, in assay [2], the “ΔMAP > 20 (mmHg) Duration time of action” value is recorded as 24 h and the “Max ΔMAP (mmHg ± SEM)” value is given as 79 ± 13 mmHg. Also, in assay [1], the IC50 amounted to 1.39 µM.
Turning to `CC1=C(C(=O)OCCN(Cc2ccccc2)c2ccccc2)C(c2cccc([N+](=O)[O-])c2)C(P2(=O)OCC(C)(C)CO2)=C(C)N1` (stereo not drawn) [efonidipine, reference compound], in assay [2], the “ΔMAP > 20 (mmHg) Duration time of action” value stood at 10 h and the “Max ΔMAP (mmHg ± SEM)” value is 69 ± 5 mmHg.
As for `COC(=O)C1=C(C)NC(C)=C(C(=O)OCCN2CCN(C(c3ccccc3)c3ccccc3)CC2)C1c1cccc([N+](=O)[O-])c1` (stereo not drawn) [manidipine, reference compound], in assay [2], the “ΔMAP > 20 (mmHg) Duration time of action” value is on record as 23 h and the “Max ΔMAP (mmHg ± SEM)” value is recorded as 74 ± 5 mmHg.
